From patent publication US9828365B2, “Fused tetracyclic heterocyclic compounds and methods of use thereof for the treatment of viral diseases” (MERCK SHARP & DOHME CORP., priority 2013, dated 2017)
Where two headings read alike, the source gives them in different places.

Legend:
[1] = test system: HCV replicon genotype 1A; assay: Cell-based HCV replicon assay, 1A; settings: replicon cells, 3 days, replicon RNA by real-time PCR
Method: (§1) To measure cell-based anti-HCV activity of selected compounds of the present invention two complimentary assays were employed. In the first assay, replicon cells were seeded at 2000 cells/well in 384-well flat bottom tissue culture treated clear bottom plate (Corning 3707) in the presence of the test compound. Various concentrations of test compound, typically in 10 serial dilutions, were added to the assay mixture, with the starting concentration ranging from 333.3 nM to 1.667 nM. The final concentration of DMSO was 0.5%. Fetal bovine serum was 5%, in the assay media. Cells were harvested on day 3 by removing media and washing the cells with a suitable wash buffer. The cells were lysed with the addition of 1× Qiagen lysis buffer (Cat #1062731). The replicon RNA level was measured using real time PCR (TaqMan® EZ RT-PCR, Applied Biosystems 403028) with the following primers and probes: […]
(§2) Cyclophilin RNA was used as endogenous control and was amplified in the same reaction as NS5B (multiplex PCR). The real-time RT-PCR reactions were run on ABI PRISM 7900HT Sequence Detection System using the following program: 50° C. for 2 minutes, 60° C. for 30 minutes, 95° C. for 5 minutes, 40 cycles of 94° C. for 20 sec, 55° C. for 1 minute.
(§3) The amount of HCV replicon RNA per cell is quantified using a linear regression curve for a known nanogram (ng) amount of HCV replicon total RNA. This is established by plotting the Cycle Threshold values (Ct) from the Neo probe and primer set versus the log (ng) for each HCV replicon total RNA standard. The amount of HCV RNA for each replicon sample is calculated by taking the sample's Ct value, minus the line intercept, divided by the slope of the line. Similarly, the amount of Cyclophilin mRNA per cell is also quantified using a linear regression curve for a known nanogram (ng) amount of HCV replicon total RNA. Again, this is established by plotting the Cycle Threshold values (Ct) from the Cyclophilin probe and primer set versus the log (ng) for each HCV replicon total RNA standard.
(§4) In the alternate assay, 1000 cells were seeded per well in a 384-well collagen coated black plate from Greiner bio-one (Cat #781946) in 5% FBS. Inhibitors of this invention were added at 24 hours post-seeding, and the plates were incubated for 3 days. Cells were subsequently lysed with Qiagen lysis buffer (Cat #1062731) to extract the RNA. HCV replicon RNA level was measured by real-time PCR using the RNA-to-CT kit from Applied Biosystem (Cat #4392656) and genotype-specific primers and probes. The amplicon was located within NS5B. The sequence of the PCR primers were as follows: 5B.2F, ATGGACAGGCGCCCTGA (SEQ. ID NO. 7); 5B.2R, […] (SEQ. ID NO. 8); the probe sequence was FAM-labeled CACGCCATGCGCTGCGG (SEQ. ID NO. 9). To detect genotype 1A the primer 1A F, TGCGGAACCGGTGAGTACA (SEQ ID NO:10) and 1A R, […] (SEQ ID NO: 11) were used; the probe sequence was FAM-[…] (SEQ ID NO:12).
(§5) The real-time RT-PCR reactions were run on ABI PRISM 7900HT or Viia7 Sequence Detection System using the following program: 48° C. for 30 minutes, 95° C. for 10 minutes, 40 cycles of 95° C. for 15 sec, 60° C. for 1 minute. The 50% effective concentration (EC50) was the drug concentration necessary to achieve an increase in the cycle threshold (CT) of 1 over the projected baseline CT. The EC90 was the drug concentration necessary to achieve an increase in CT of 3.2 over the projected baseline CT.

[2] = test system: HCV replicon 1A Y93H; assay: Cell-based HCV replicon assay, 1A Y93H
Method: as §1, §2, §3, §4, §5

[3] = test system: HCV replicon 1B; assay: Cell-based HCV replicon assay, 1B; settings: replicon cells, 3 days, replicon RNA by real-time PCR
Method: as §1, §2, §3, §4, §5

[4] = test system: HCV replicon 2B; assay: Cell-based HCV replicon assay, 2B; settings: replicon cells, 3 days, replicon RNA by real-time PCR
Method: as §1, §2, §3, §4, §5

[5] = test system: HCV replicon 3A; assay: Cell-based HCV replicon assay, 3A; settings: replicon cells, 3 days, replicon RNA by real-time PCR
Method: as §1, §2, §3, §4, §5

[6] = read-out: 1A Y93H IC50, replicon cells, 3 days, replicon RNA by real-time PCR
[7] = Hepatitis C virus, 72 h, read-out: 1A Y93H IC50 (nM), replicon cells, 3 days, replicon RNA by real-time PCR

Compound | IC50 [1] | IC50 [2, 6] | IC50 [2, 7] | other results
COC(=O)N[C@H](C(=O)N1CCC[C@H]1c1ncc(-c2ccc3c(c2)OC(c2ccccc2)C2=C3COc3cc(-c4cnc([C@@H]5CCCN5C(=O)[C@@H](NC(=O)OC)C(C)C)[nH]4)ccc32)[nH]1)C(C)C (single isomer, unassigned) [Compound 8] | 0.0337 nM | 20.4 nM |  | IC50 [3]: 0.021 nM; IC50 [4]: 6.65 nM; IC50 [5]: 0.969 nM
COC(=O)N[C@H](C(=O)N1CCC[C@H]1c1ncc(-c2ccc3c(c2)OC(c2ccccc2)C2=C3COc3cc(-c4cnc([C@@H]5CCCN5C(=O)[C@@H](NC(=O)OC)C(C)C)[nH]4)ccc32)[nH]1)C(C)C (single isomer, unassigned) [Compound 9] | 0.0099 nM | 3.94 nM |  | IC50 [3]: 0.0073 nM; IC50 [4]: 1.9 nM; IC50 [5]: 0.172 nM
COC(=O)N[C@H](C(=O)N1CCC[C@H]1c1ncc(-c2ccc3c(c2)OC(c2cccc(OC)c2)C2=C3COc3cc(-c4cnc([C@@H]5CCCN5C(=O)[C@@H](NC(=O)OC)C(C)C)[nH]4)ccc32)[nH]1)C(C)C (single isomer, unassigned) [Compound 10] | 0.0035 nM |  | 2.94 nM | IC50 ([4]; Hepatitis C virus, 72 h): 2.72 nM; IC50 [5]: 0.233 nM
COC(=O)N[C@H](C(=O)N1CCC[C@H]1c1ncc(-c2ccc3c(c2)OC(c2cccc(OC)c2)C2=C3COc3cc(-c4cnc([C@@H]5CCCN5C(=O)[C@@H](NC(=O)OC)C(C)C)[nH]4)ccc32)[nH]1)C(C)C (single isomer, unassigned) [Compound 11] | 0.01 nM |  |  | IC50 ([3]; Hepatitis C virus, 72 h): 0.006 nM
COC(=O)N[C@H](C(=O)N1CCC[C@H]1c1ncc(-c2ccc3c(c2)OC(c2cccc(OC)c2)C2=C3COc3cc(-c4cnc([C@@H]5CCCN5C(=O)[C@@H](NC(=O)OC)C(C)C)[nH]4)ccc32)[nH]1)C(C)C (single isomer, unassigned) [Compound 12] | 0.0251 nM | 2.44 nM |  | IC50 [5]: 1.82 nM
COC(=O)N[C@H](C(=O)N1CCC[C@H]1c1ncc(-c2ccc3c(c2)OC(C)C2=C3COc3cc(-c4cnc([C@@H]5CCCN5C(=O)[C@@H](NC(=O)OC)C(C)C)[nH]4)ccc32)[nH]1)C(C)C (single isomer, unassigned) [Compound 13] | 0.0344 nM | 23.8 nM |  | IC50 [4]: 12 nM; IC50 ([5]; Hepatitis C virus, 72 h): 1 nM
COC(=O)N[C@H](C(=O)N1CCC[C@H]1c1ncc(-c2ccc3c(c2)OC(C)C2=C3COc3cc(-c4cnc([C@@H]5CCCN5C(=O)[C@@H](NC(=O)OC)C(C)C)[nH]4)ccc32)[nH]1)C(C)C (single isomer, unassigned) [Compound 14] | 0.0122 nM | 31.8 nM |  | IC50 [4]: 24.5 nM
COC(=O)N[C@H](C(=O)N1CCC[C@H]1c1ncc(-c2ccc3c(c2)OC(C)C2=C3COc3cc(-c4cnc([C@@H]5CCCN5C(=O)[C@@H](NC(=O)OC)C(C)C)[nH]4)ccc32)[nH]1)C(C)C (single isomer, unassigned) [Compound 15] | 0.0229 nM | 127 nM |  | IC50 [4]: 15.3 nM
COC(=O)N[C@H](C(=O)N1CCC[C@H]1c1ncc(-c2ccc3c(c2)OC(C2CC2)C2=C3COc3cc(-c4cnc([C@@H]5CCCN5C(=O)[C@@H](NC(=O)OC)C(C)C)[nH]4)ccc32)[nH]1)C(C)C (single isomer, unassigned) [Compound 16] |  | 6.31 nM |  | IC50 ([1]; Hepatitis C virus, 72 h): 0.0118 nM; IC50 ([4]; Hepatitis C virus, 72 h): 0.621 nM; IC50 ([5]; Hepatitis C virus, 72 h): 3.74 nM
COC(=O)N[C@H](C(=O)N1CCC[C@H]1c1ncc(-c2ccc3c(c2)OC(C2CC2)C2=C3COc3cc(-c4cnc([C@@H]5CCCN5C(=O)[C@@H](NC(=O)OC)C(C)C)[nH]4)ccc32)[nH]1)C(C)C (single isomer, unassigned) [Compound 17] | 0.0115 nM | 57.9 nM |  | 
COC(=O)N[C@H](C(=O)N1CCC[C@H]1c1ncc(-c2ccc3c(c2)OC(C2CC2)C2=C3COc3cc(-c4cnc([C@@H]5CCCN5C(=O)[C@@H](NC(=O)OC)C(C)C)[nH]4)ccc32)[nH]1)C(C)C (single isomer, unassigned) [Compound 18] | 0.0081 nM | 14.3 nM |  | 
COC(=O)N[C@H](C(=O)N1C[C@H](F)C[C@H]1c1ncc(-c2ccc3c(c2)OC(C2CC2)C2=C3COc3cc(-c4cnc([C@@H]5C[C@@H](F)CN5C(=O)[C@@H](NC(=O)OC)C(C)C)[nH]4)ccc32)[nH]1)C(C)C (single isomer, unassigned) [Compound 19] | 0.0192 nM |  | 2.31 nM | 
COC(=O)N[C@H](C(=O)N1C[C@H](F)C[C@H]1c1ncc(-c2ccc3c(c2)OC(C2CC2)C2=C3COc3cc(-c4cnc([C@@H]5C[C@@H](F)CN5C(=O)[C@@H](NC(=O)OC)C(C)C)[nH]4)ccc32)[nH]1)C(C)C (single isomer, unassigned) [Compound 20] | 0.0866 nM | 1.97 nM |  | 
COC(=O)N[C@H](C(=O)N1C[C@H](F)C[C@H]1c1ncc(-c2ccc3c(c2)OC(C2CC2)C2=C3COc3cc(-c4cnc([C@@H]5C[C@@H](F)CN5C(=O)[C@@H](NC(=O)OC)C(C)C)[nH]4)ccc32)[nH]1)C(C)C (single isomer, unassigned) [Compound 21] | 0.0156 nM | 2.17 nM |  | 
COC(=O)N[C@H](C(=O)N1C[C@H](F)C[C@H]1c1ncc(-c2ccc3c(c2)OCc2c-3c(=O)oc3cc(-c4cnc([C@@H]5C[C@@H](F)CN5C(=O)[C@@H](NC(=O)OC)C(C)C)[nH]4)ccc23)[nH]1)C(C)C [Compound 5] |  |  | 0.337 nM | IC50 ([1]; Hepatitis C virus, 72 h): 0.0153 nM; IC50 ([3]; Hepatitis C virus, 72 h): 0.0044 nM; IC50 ([4]; Hepatitis C virus, 72 h): 100 nM; IC50 ([5]; Hepatitis C virus, 72 h): 1 nM
CC(C)(C)OC(=O)N1C[C@H](F)C[C@H]1c1ncc(-c2ccc3c(c2)OCc2c-3c(=O)oc3cc(-c4cnc([C@@H]5C[C@@H](F)CN5C(=O)OC(C)(C)C)[nH]4)ccc23)[nH]1 [Compound 6] |  |  | 3080 nM | IC50 ([1]; Hepatitis C virus, 72 h): 975 nM
COC(=O)N[C@H](C(=O)N1CCC[C@H]1c1ncc(-c2ccc3c(c2)OC(c2ccccc2)C2=C3COc3cc(-c4cnc([C@@H]5CCCN5C(=O)[C@@H](NC(=O)OC)C(C)C)[nH]4)ccc32)[nH]1)C(C)C (some centres unmarked) [Compound 7] |  |  | 4.29 nM | IC50 ([1]; Hepatitis C virus, 72 h): 0.0076 nM; IC50 ([3]; Hepatitis C virus, 72 h): 0.002 nM; IC50 ([4]; Hepatitis C virus, 72 h): 1 nM; IC50 ([5]; Hepatitis C virus, 72 h): 0.062 nM
COC(=O)N[C@H](C(=O)N1CCC[C@H]1c1ncc(-c2ccc3c(c2)OCC2=C3COc3cc(-c4cnc([C@@H]5C[C@H]6C[C@H]6N5C(=O)[C@@H](NC(=O)OC)C(C)C)[nH]4)ccc32)[nH]1)C(C)C [Compound 22] |  |  | 2.01 nM | IC50 ([1]; Hepatitis C virus, 72 h): 0.0023 nM; IC50 ([4]; Hepatitis C virus, 72 h): 16 nM; IC50 ([5]; Hepatitis C virus, 72 h): 2.02 nM
